Laboratory results published in paper PMC11410943 (Nature Communications, 2024).
Values after ≈ are worked out from the molar mass of the structure shown. Read-outs that look alike come from different tables or passages of the source.

Key:
hERG K+ channel = hERG K+ channel (Homo sapiens, UniProt Q12809); assay: hERG automated patch-clamp; assay type: cell-based
Escherichia coli = assay: MIC
Pseudomonas aeruginosa = assay: MIC
Klebsiella pneumoniae = assay: MIC
Acinetobacter baumannii = assay: MIC; details: IHMA/CARB-X MDR clinical isolates 2019, N=298
Enterobacter cloacae = assay: MIC; details: IHMA/CARB-X MDR clinical isolates 2019, N=152
Citrobacter spp. = assay: MIC
Proteus spp. = assay: MIC
Morganella morganii = assay: MIC; details: IHMA/CARB-X MDR clinical isolates 2019, N=42
Serratia marcescens = assay: MIC; details: IHMA/CARB-X MDR clinical isolates 2019, N=45
[1] = test system: Stenotrophomonas maltophilia; assay: MIC; details: IHMA/CARB-X MDR clinical isolates 2019, N=150
[2] = IHMA/CARB-X MDR clinical isolates 2019, N=300
[3] = IHMA/CARB-X MDR clinical isolates 2019, N=151
[4] = IHMA/CARB-X MDR clinical isolates 2019, N=152

Chain of hERG K+ channel (Q12809 whole entry): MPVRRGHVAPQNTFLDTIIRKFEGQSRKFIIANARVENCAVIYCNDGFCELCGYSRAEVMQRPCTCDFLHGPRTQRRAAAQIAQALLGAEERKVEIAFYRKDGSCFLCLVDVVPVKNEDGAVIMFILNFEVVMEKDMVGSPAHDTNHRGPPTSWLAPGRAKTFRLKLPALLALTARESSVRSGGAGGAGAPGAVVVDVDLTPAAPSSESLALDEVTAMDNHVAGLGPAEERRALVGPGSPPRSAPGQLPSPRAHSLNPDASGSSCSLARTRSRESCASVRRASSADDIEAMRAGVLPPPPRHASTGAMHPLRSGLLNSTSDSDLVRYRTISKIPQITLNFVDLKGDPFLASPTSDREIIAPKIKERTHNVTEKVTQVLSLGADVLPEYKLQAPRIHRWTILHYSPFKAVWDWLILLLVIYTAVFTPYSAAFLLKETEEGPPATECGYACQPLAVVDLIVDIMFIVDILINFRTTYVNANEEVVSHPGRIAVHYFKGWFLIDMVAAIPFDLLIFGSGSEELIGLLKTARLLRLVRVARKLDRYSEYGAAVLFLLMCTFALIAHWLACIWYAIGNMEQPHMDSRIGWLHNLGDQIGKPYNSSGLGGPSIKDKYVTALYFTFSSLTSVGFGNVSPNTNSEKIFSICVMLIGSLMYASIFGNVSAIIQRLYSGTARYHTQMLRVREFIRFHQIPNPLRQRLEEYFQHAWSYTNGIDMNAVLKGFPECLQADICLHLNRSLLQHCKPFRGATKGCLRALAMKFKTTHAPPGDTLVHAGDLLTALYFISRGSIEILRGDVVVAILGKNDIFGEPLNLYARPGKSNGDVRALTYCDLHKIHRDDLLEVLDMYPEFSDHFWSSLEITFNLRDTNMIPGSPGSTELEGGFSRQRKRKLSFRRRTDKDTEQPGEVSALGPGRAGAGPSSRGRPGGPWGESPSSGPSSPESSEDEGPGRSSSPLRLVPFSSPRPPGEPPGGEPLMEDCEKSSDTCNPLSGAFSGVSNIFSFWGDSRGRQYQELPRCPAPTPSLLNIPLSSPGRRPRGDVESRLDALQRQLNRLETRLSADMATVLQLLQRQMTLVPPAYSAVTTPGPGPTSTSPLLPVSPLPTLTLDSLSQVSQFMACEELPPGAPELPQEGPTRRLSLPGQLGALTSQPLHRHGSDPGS

Compound	IC50 (hERG K+ channel) [µM]	MIC90 (Escherichia coli; Escherichia coli) [µg/mL]	MIC90 (Pseudomonas aeruginosa; Pseudomonas aeruginosa) [µg/mL]	MIC90 (Klebsiella pneumoniae; Klebsiella pneumoniae) [µg/mL]	MIC90 (Acinetobacter baumannii; Acinetobacter baumannii) [µg/mL]	MIC90 (Enterobacter cloacae; Enterobacter cloacae) [µg/mL]	MIC90 (Citrobacter spp.; Citrobacter) [µg/mL]	MIC90 (Proteus spp.) [µg/mL]	MIC90 (Morganella morganii; Morganella morganii) [µg/mL]	MIC90 (Escherichia coli; [2]) [µg/mL]	MIC90 (Pseudomonas aeruginosa; [2]) [µg/mL]	MIC90 (Klebsiella pneumoniae; [2]) [µg/mL]	MIC90 (Enterobacter cloacae) [µg/mL]	MIC90 (Citrobacter spp.; [3]) [µg/mL]	MIC90 (Proteus spp.; [4]) [µg/mL]	MIC90 (Serratia marcescens) [µg/mL]	MIC90 (Morganella morganii) [µg/mL]	MIC90 (Acinetobacter baumannii) [µg/mL]	MIC90 [1] [µg/mL]
Cn1c(=O)ccc2ccc(F)c(CCNC[C@@H]3CN(c4cnc5c(n4)NC(=O)CO5)C(=O)O3)c21 [Compound 8, 6-[(5 R)−5-[[[2-(7-Fluoro-1,2-dihydro-1-methyl-2-oxo-8-quinolinyl)ethyl]amino]methyl]−2-oxo-3-oxazolidinyl]−2H-pyrazino[2,3-b]−1,4-oxazin-3(4H)-one]	60	–	–	–	–	–	–	–	–	–	–	–	–	–	–	–	–	–	–
C[C@H]1c2cccc(O)c2C(=O)C2=C(O)[C@]3(O)C(=O)C(C(N)=O)=C(O)[C@@H](N(C)C)[C@@H]3[C@@H](O)[C@@H]21 [Doxycycline]	–	32 (≈ 72 µM)	32 (≈ 72 µM)	32 (≈ 72 µM)	64 (≈ 144 µM)	16 (≈ 36 µM)	16 (≈ 36 µM)	> 32	64 (≈ 144 µM)	–	–	–	–	–	–	–	–	–	–
CN(C)[C@@H]1C(O)=C(C(N)=O)C(=O)[C@@]2(O)C(O)=C3C(=O)c4c(O)c(NC(=O)CN5CCCC5)cc(F)c4C[C@H]3C[C@@H]12 [Eravacycline]	–	0.25 (≈ 0.448 µM)	–	1 (≈ 1.79 µM)	–	–	0.5 (≈ 0.895 µM)	2 (≈ 3.58 µM)	1 (≈ 1.79 µM)	–	–	–	–	–	–	–	–	–	–
CNC(C)C1CCC(N)C(OC2C(N)CC(N)C(OC3OCC(C)(O)C(NC)C3O)C2O)O1 (centres unmarked) [Gentamicin]	–	> 32	> 32	> 32	> 32	1 (≈ 2.09 µM)	8 (≈ 16.8 µM)	16 (≈ 33.5 µM)	64 (≈ 134 µM)	–	–	–	–	–	–	–	–	–	–
C[C@H]1COc2c(N3CCN(C)CC3)c(F)cc3c(=O)c(C(=O)O)cn1c23 [Levofloxacin]	–	16 (≈ 44.3 µM)	32 (≈ 88.6 µM)	> 32	> 32	64 (≈ 177 µM)	2 (≈ 5.53 µM)	8 (≈ 22.1 µM)	16 (≈ 44.3 µM)	–	–	–	–	–	–	–	–	–	–
C[C@@H](O)[C@H]1C(=O)N2C(C(=O)O)=C(S[C@@H]3CN[C@H](C(=O)N(C)C)C3)[C@H](C)[C@H]12 [Meropenem]	–	≤ 0.06	32 (≈ 83.4 µM)	32 (≈ 83.4 µM)	> 64	8 (≈ 20.9 µM)	≤ 0.06	0.125 (≈ 0.326 µM)	0.125 (≈ 0.326 µM)	–	–	–	–	–	–	–	–	–	–
CN[C@@H]1[C@@H](O)[C@@H](O[C@@H]2[C@@H](O)[C@H](O[C@H]3OC(CNCCO)=CC[C@H]3N)[C@@H](N)C[C@H]2NC(=O)[C@@H](O)CCN)OC[C@]1(C)O [Plazomicin]	–	1 (≈ 1.69 µM)	–	0.5 (≈ 0.844 µM)	–	0.5 (≈ 0.844 µM)	0.5 (≈ 0.844 µM)	4 (≈ 6.75 µM)	8 (≈ 13.5 µM)	–	–	–	–	–	–	–	–	–	–
NC[C@H]1O[C@H](O[C@H]2[C@H](O)[C@@H](O[C@H]3O[C@H](CO)[C@@H](O)[C@H](N)[C@H]3O)[C@H](N)C[C@@H]2N)[C@H](N)C[C@@H]1O [Tobramycin]	–	16 (≈ 34.2 µM)	> 32	> 32	> 32	32 (≈ 68.4 µM)	8 (≈ 17.1 µM)	8 (≈ 17.1 µM)	16 (≈ 34.2 µM)	–	–	–	–	–	–	–	–	–	–
Aztreonam/Avibactam	–	–	–	–	–	–	–	–	–	0.125	> 16	0.25	0.5	0.25	≤ 0.016	0.25	0.06	–	–
Ceftazidime-Avibactam	–	–	–	–	–	–	–	–	–	0.25	> 16	1	2	0.5	0.06	1	0.125	–	–
Colistin	–	–	–	–	–	–	–	–	–	0.25	1	0.5	2	0.5	> 32	> 32	64	0.5	> 32
Meropenem-vaborbactam	–	–	–	–	–	–	–	–	–	≤ 0.03	32	16	0.25	≤ 0.03	0.125	0.125	0.06	> 32	> 32
Piperacillin/Tazobactam	–	–	–	–	–	–	–	–	–	–	128	–	0.06	–	–	–	–	> 128	> 128
